Activity calls are given as the source filed them. The rule behind the calls is not given here.
Experiments:
MGC-803 = test: Antiproliferative activity against human MGC-803 cells assessed as inhibition of cell growth measured after 72 hrs by SRB assay; type: functional, cell-based; conditions: MGC-803, 72 h
SW1990 = test: Antiproliferative activity against human SW1990 cells assessed as inhibition of cell growth measured after 72 hrs by SRB assay; type: functional, cell-based; conditions: SW1990, 72 h
PC-3 = test: Antiproliferative activity against human PC-3 cells assessed as inhibition of cell growth measured after 72 hrs by SRB assay; type: functional, cell-based; conditions: PC-3, 72 h
TE-1 = test: Antiproliferative activity against human TE-1 cells assessed as inhibition of cell growth measured after 72 hrs by SRB assay; type: functional, cell-based; conditions: TE-1, 72 h
HGC-27 [1] = test: Antiproliferative activity against human HGC-27 cells assessed as inhibition of cell growth measured after 72 hrs by SRB assay; type: functional, cell-based; conditions: HGC-27, 72 h
HGC-27 [2] = test: Inhibition of colony formation in human HGC-27 cells measured for 24 hrs by crystal violet staining based assay; type: functional, cell-based; conditions: dose microM <=2, time 24.0 hrs
HGC-27 [3] = test: Antimigratory activity against human HGC-27 cells assessed as inhibition of cell migration measured after 24 hrs by cell scratch assay; type: functional, cell-based; conditions: dose microM <=2, time 24.0 hrs
[4] = Drug uptake in human HGC-27 cells assessed as increase in fluorescence intensity by fluorescence microscopic analysis; type: ADME, cell-based; conditions: dose 2-8 µM, time <=60 min
[5] = Drug localization in mitochondria of human HGC-27 cells at 2 uM incubated for 1 hr by Mitotracker red dye based confocal laser microscopy analysis; type: ADME; conditions: hgc-27, 1 h
HGC-27 [6] = test: Induction of mitochondrial membrane potential loss in human HGC-27 cells assessed as decrease in red fluorescence intensity upto 2 uM incubated for 24 hrs by TMRM dye based flow cytometric analysis; type: functional, cell-based; conditions: dose microM <=2, time 24.0 hrs
HGC-27 [7] = test: Induction of apoptosis in human HGC-27 cells assessed as increase in Bax expression upto 2 uM measured after 24 hrs by Western blot analysis; type: functional, cell-based; conditions: dose microM <=2, time 24.0 hrs
HGC-27 [8] = test: Induction of apoptosis in human HGC-27 cells assessed as increase in cytochrome-c expression upto 2 uM measured after 24 hrs by Western blot analysis; type: functional, cell-based; conditions: dose microM <=2, time 24.0 hrs
HGC-27 [9] = test: Induction of apoptosis in human HGC-27 cells assessed as increase in cleaved caspase-9 expression upto 2 uM measured after 24 hrs by Western blot analysis; type: functional, cell-based; conditions: dose microM <=2, time 24.0 hrs
HGC-27 [10] = test: Induction of apoptosis in human HGC-27 cells assessed as increase in cleaved caspase-3 expression upto 2 uM measured after 24 hrs by Western blot analysis; type: functional, cell-based; conditions: dose microM <=2, time 24.0 hrs
HGC-27 [11] = test: Induction of apoptosis in human HGC-27 cells assessed as decrease in Bcl-2 expression upto 2 uM measured after 24 hrs by Western blot analysis; type: functional, cell-based; conditions: dose microM <=2, time 24.0 hrs
[12] = Cytotoxicity against human GES1 cells assessed as inhibition of cell growth measured after 72 hrs by SRB assay; type: toxicity, cell-based
[13] = Drug uptake in human HGC-27 cells assessed as increase in fluorescence intensity of green signal at 8 uM measured after 1 hr by fluorescence microscopic analysis; type: ADME, cell-based; conditions: hgc-27, 1 h
[14] = Drug localization in nucleus of human HGC-27 cells at 2 uM incubated for 1 hr by DAPI staining based confocal laser microscopic analysis; type: ADME, cell-based; conditions: hgc-27, 1 h
HGC-27 [15] = test: Induction of apoptosis in human HGC-27 cells assessed as increase in total apoptotic cells by Hoechst 33342 staining based fluorescence assay; type: functional, cell-based; conditions: dose 0.5-2 µM
HGC-27 [16] = test: Induction of apoptosis in human HGC-27 cells assessed as enhance brightness of fluorescence at 0.5 to 2 uM by Hoechst 33342 staining based fluorescence assay; type: functional, cell-based; conditions: dose 0.5-2 µM
HGC-27 [17] = test: Induction of apoptosis in human HGC-27 cells assessed as nuclear cohesion at 0.5 to 2 uM by Hoechst 33342 staining based fluorescence assay; type: functional, cell-based; conditions: dose 0.5-2 µM
HGC-27 [18] = test: Induction of apoptosis in human HGC-27 cells assessed as nuclear rupture at 0.5 to 2 uM by Hoechst 33342 staining based fluorescence assay; type: functional, cell-based; conditions: dose 0.5-2 µM

C=C1C(=O)[C@]23[C@H](O)[C@H]1C[C@H](O)[C@H]2[C@]12CCCC(C)(C)[C@H]1C[C@H]3O[C@H]2OCCCCCc1cn(CCOCCOCCOCCN2C(=O)c3cccc4c(N5CCCCC5)ccc(c34)C2=O)nn1
IC50 (MGC-803): 640 nM
IC50 (SW1990): 860 nM
IC50 (PC-3): 680 nM
IC50 (TE-1): 730 nM
IC50 (HGC-27 [1]): 390 nM
Activity (HGC-27 [2]): Dose-Dependent Effect
Activity (HGC-27 [3]): Dose-Dependent Effect
Drug uptake [4]: Dose-Dependent Effect and Tde
Drug uptake [5]: Active
Activity (HGC-27 [6]): Active
Activity (HGC-27 [7]): Active
Activity (HGC-27 [8]): Active
Activity (HGC-27 [9]): Active
Activity (HGC-27 [10]): Active
Activity (HGC-27 [11]): Active
IC50 at 72 h [12]: 18100 nM
Drug uptake [13]: Active
Drug uptake [14]: Not Active
Activity (HGC-27 [15]): Active
Activity (HGC-27 [16]): Active
Activity (HGC-27 [17]): Active
Activity (HGC-27 [18]): Active
